Measurements from ChEMBL document CHEMBL5727973, “Azetidinyloxyphenylpyrrolidine compounds” (2020).

Molecular target: 3',5'-cyclic-AMP phosphodiesterase 4B (Homo sapiens, UniProt Q07343)
Experiment: Inhibition In Vitro Assay: PDE4A, PDE4B, PDE4C, PDE4D, and PDE5 human recombinant proteins are expressed and purified from Saccharomyes cerevisiae that lack endogenous PDEs. The phosphodiesterase enzymes are diluted on ice with enzyme dilution buffer (25 mM Tris, pH 7.5, 0.1 mM DTT, 5.0 mM MgCl2, 100 mM NaCl, 5 μM ZnSO4, 100 μg/mL BSA) to give approximately 20%-40% hydrolysis of cyclic nucleotide monophosphate (cNMP) in the absence of inhibitor. The stock solution of test compounds are diluted on the Beckman BioMek™ 1000 workstation to span a concentration range of 4.5 log units in 0.5 log increments. The DMSO concentration in the final test system is 2.5% for all PDE enzymes. The final test compound concentration tested ranged from 0.03 nM to 1 μM. The assay is performed in a 96-well microtiter plate format on a Beckman BioMek™ 1000 robotic station. Each row of the plate represents a 10-point dose response curve containing blank (no enzyme), non-inhibited control, and inhibitor dilutions spanning 4.5 log units in concentration in 0.5 log increments. Assay stock solutions are loaded into the Biomek™ reservoirs (water, inhibitor diluent [2.5% or 10% DMSO], 5× PDE assay buffer, substrate, inhibitor solutions, enzyme solutions, snake venom nucleotidase, and charcoal suspension). The reaction is initiated with enzyme, and incubated for 15 minutes at 30° C. […]

Sequence of 3',5'-cyclic-AMP phosphodiesterase 4B (Q07343 whole entry): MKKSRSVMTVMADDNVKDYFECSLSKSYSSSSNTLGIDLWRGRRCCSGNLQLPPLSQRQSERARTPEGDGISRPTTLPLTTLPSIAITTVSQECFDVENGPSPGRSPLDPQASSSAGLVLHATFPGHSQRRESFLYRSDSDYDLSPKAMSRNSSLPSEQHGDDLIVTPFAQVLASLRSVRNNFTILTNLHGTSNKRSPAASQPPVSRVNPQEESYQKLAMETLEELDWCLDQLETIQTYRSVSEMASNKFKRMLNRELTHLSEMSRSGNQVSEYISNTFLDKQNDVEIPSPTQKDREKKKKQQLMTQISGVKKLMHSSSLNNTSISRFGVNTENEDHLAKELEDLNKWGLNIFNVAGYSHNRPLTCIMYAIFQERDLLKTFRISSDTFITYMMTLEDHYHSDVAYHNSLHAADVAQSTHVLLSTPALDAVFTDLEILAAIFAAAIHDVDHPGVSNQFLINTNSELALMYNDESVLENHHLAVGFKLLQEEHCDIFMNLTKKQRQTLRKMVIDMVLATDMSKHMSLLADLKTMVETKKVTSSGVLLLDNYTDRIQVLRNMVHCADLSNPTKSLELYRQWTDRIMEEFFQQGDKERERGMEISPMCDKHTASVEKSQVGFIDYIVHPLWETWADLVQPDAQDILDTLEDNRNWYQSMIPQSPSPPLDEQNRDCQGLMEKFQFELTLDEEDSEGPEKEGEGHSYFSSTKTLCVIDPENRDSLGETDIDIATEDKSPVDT

## COc1ccc([C@@H]2CN(C(=O)[C@@H](O)CO)C[C@@]2(C)[C@@H](C)O)cc1OC1CN(c2cnccn2)C1
  IC50: 14 nM
